13 compounds from PubChem BioAssay (NCI) can be followed below.

Molecules are shown by their SMILES.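 Cultured in 96-well plates, cells were exposed to test compound for 48 hours across five concentrations. TGI is the concentration that stops growth completely.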

Among the test systems are A549 NSCLC; BT-549 breast; HOP-62 NSCLC; LOX IMVI melanoma; MDA-N; NCI-H226 lung; SK-MEL-28 melanoma; SK-MEL-5 melanoma; SN12C renal; SR leukemia; UACC-62 melanoma; RPMI-8226 leukemia.
What all share (assay): inhibition of tumour cell growth, NCI panel, 48 h

As to `O=C1c2cc([N+](=O)[O-])sc2C(=O)c2cc([N+](=O)[O-])sc21`, the TGI in the test on A549 NSCLC is 49.6 µM; in the test with BT-549 breast, 3.95 µM; in the test on HOP-62 NSCLC, 15.3 µM; with LOX IMVI melanoma it was 3.68 µM; in the test with MDA-N, 4.72 µM; with NCI-H226 lung, 26.3 µM. The TGI is 8.3 µM in the test with SK-MEL-28 melanoma; 7.21 µM in the test with SK-MEL-5 melanoma; 7.12 µM with SN12C renal; 6 µM in the test with SR leukemia; 3.8 µM in the test with UACC-62 melanoma.
Turning to `COc1cc(C2SCC(=O)N2NC(=O)c2ccc(NC(C)=O)cc2OC)ccc1O` (stereo not given), the TGI in the test with A549 NSCLC was more than 100 µM; in the test on BT-549 breast, more than 100 µM; with HOP-62 NSCLC, 36.7 µM; in the test with LOX IMVI melanoma, more than 100 µM; in the test with MDA-N, more than 100 µM; with RPMI-8226 leukemia, more than 100 µM. Also, the TGI was more than 100 µM in the test with SK-MEL-28 melanoma, 79.8 µM in the test with SN12C renal, more than 100 µM in the test on SR leukemia and more than 100 µM in the test with UACC-62 melanoma.
On to `Clc1nc(Nc2nc3ccccc3[nH]2)nc(Cl)c1-c1ccccc1`, for which the TGI in the test on A549 NSCLC is more than 100 µM; in the test on BT-549 breast, 42.5 µM; with MDA-N, 23.7 µM; in the test with NCI-H226 lung it was 46.4 µM; with RPMI-8226 leukemia, more than 100 µM; in the test on SK-MEL-28 melanoma, 27 µM. Further, the TGI in the test with SK-MEL-5 melanoma was 53.5 µM; with SN12C renal, 31.1 µM; in the test on SR leukemia, more than 100 µM; in the test with UACC-62 melanoma, 36.9 µM.
On to `C=C(C)C1CC2=C(O1)C(=O)c1cccc(O)c1C2=O` (stereo not given), for which the TGI in the test on A549 NSCLC is 4.9 µM; in the test on BT-549 breast, 1.63 µM; in the test on HOP-62 NSCLC, 2.94 µM; in the test with LOX IMVI melanoma, more than 22.8 µM; in the test with MDA-N it was 0.132 µM; with NCI-H226 lung, 3.46 µM. Moreover, the TGI in the test with RPMI-8226 leukemia stood at 1.22 µM; in the test on SK-MEL-28 melanoma, 3.33 µM; in the test with SK-MEL-5 melanoma, 0.304 µM; with SN12C renal, 2.44 µM; in the test on UACC-62 melanoma, 2.18 µM.
`COc1cc(C(=O)N(C(=S)OC23CC4CC(CC(C4)C2)C3)c2ccccc2)cc(OC)c1OC`: the TGI in the test with A549 NSCLC was more than 100 µM; in the test with BT-549 breast, more than 100 µM; with HOP-62 NSCLC, more than 100 µM; with MDA-N, 85.8 µM; in the test on NCI-H226 lung it was more than 100 µM; in the test on SK-MEL-28 melanoma it was more than 100 µM. Moreover, the TGI was 32.9 µM with SK-MEL-5 melanoma, more than 100 µM in the test with SN12C renal and more than 100 µM in the test with UACC-62 melanoma.
With `NS(=O)(=O)c1nnc(NC(=O)/C=C/C(=O)O)s1`, the TGI in the test on A549 NSCLC, in the test with BT-549 breast, with HOP-62 NSCLC, in the test with LOX IMVI melanoma, with MDA-N and in the test with RPMI-8226 leukemia was more than 100 µM each time. Also, the TGI in the test on SK-MEL-28 melanoma, in the test on SK-MEL-5 melanoma, with SN12C renal, in the test on SR leukemia and with UACC-62 melanoma was more than 100 µM throughout.
For `CC(C)(C)OC(=O)N1CCC(NC(=O)NC2CCN(C(=O)OC(C)(C)C)CC2)CC1`, the TGI with A549 NSCLC was more than 100 µM; in the test with BT-549 breast, 12.6 µM; in the test with HOP-62 NSCLC it was more than 100 µM; with LOX IMVI melanoma it was more than 100 µM; in the test with MDA-N it was more than 100 µM; in the test with RPMI-8226 leukemia it was more than 100 µM. In addition, the TGI in the test with SK-MEL-28 melanoma, with SN12C renal, in the test with SR leukemia and in the test with UACC-62 melanoma was more than 100 µM in each case.
With `COc1ccc2c(c1)OC1c3ccccc3OCC21` (stereo not given), the TGI in the test with BT-549 breast, in the test with HOP-62 NSCLC, with LOX IMVI melanoma, in the test on MDA-N, in the test on NCI-H226 lung and with RPMI-8226 leukemia was more than 100 µM throughout. The TGI with SK-MEL-28 melanoma, in the test on SK-MEL-5 melanoma, in the test with SN12C renal and in the test on UACC-62 melanoma was more than 100 µM throughout.
For the compound `OC1(C2(c3ccc(Cl)cc3)CCCC2)c2ccccc2C2=NCCN21` (stereo not given), the TGI with A549 NSCLC was determined as 31.3 µM; in the test on BT-549 breast, 31.5 µM; in the test with HOP-62 NSCLC, 32.6 µM; in the test with LOX IMVI melanoma it was 28.3 µM; in the test on MDA-N, 29.7 µM; in the test with NCI-H226 lung, 33 µM. Moreover, the TGI in the test with SK-MEL-28 melanoma came to 31 µM; with SK-MEL-5 melanoma, 25.1 µM; in the test on SN12C renal, 31.5 µM; in the test with SR leukemia it was 37.9 µM; in the test with UACC-62 melanoma it was 29.7 µM.
In the case of `C=CC(C)(C)n1cc(C2=C(O)C(=O)C(c3c(CC=C(C)C)[nH]c4ccccc34)=C(O)C2=O)c2ccccc21`, the TGI amounted to 7.85 µM with A549 NSCLC; 1.91 µM with BT-549 breast; 2.63 µM in the test on HOP-62 NSCLC; 5.38 µM in the test with LOX IMVI melanoma; 4.08 µM with MDA-N; 3.64 µM in the test on NCI-H226 lung. The TGI with SK-MEL-28 melanoma was determined as 2.03 µM; in the test with SK-MEL-5 melanoma it was 4.1 µM; with SN12C renal it was 3.6 µM; with UACC-62 melanoma, 1.18 µM.
Take `OC[C@@H](O)[C@H](O)[C@@H](O)/C=N/Nc1ccc(Cl)nn1`: the TGI in the test with A549 NSCLC, in the test with BT-549 breast, in the test with HOP-62 NSCLC, in the test with LOX IMVI melanoma, in the test on MDA-N and in the test with RPMI-8226 leukemia was more than 100 µM each time. The TGI in the test on SK-MEL-28 melanoma, in the test with SK-MEL-5 melanoma, with SN12C renal and in the test with UACC-62 melanoma was more than 100 µM each time.
With `COc1ccc2[nH]c3c(C)c4ncccc4c(C)c3c2c1`, the TGI is 4.88 µM in the test on A549 NSCLC; more than 10 µM with BT-549 breast; more than 10 µM with HOP-62 NSCLC; more than 10 µM in the test with MDA-N; more than 10 µM with NCI-H226 lung; 7.56 µM in the test on RPMI-8226 leukemia. The TGI in the test on SK-MEL-28 melanoma was 3.49 µM; in the test with SK-MEL-5 melanoma it was more than 10 µM; in the test with SN12C renal, more than 10 µM; with SR leukemia it was more than 10 µM; in the test on UACC-62 melanoma it was more than 10 µM.
For the compound `Brc1ccc(C2CC3(c4ccccc4)ON=C(c4ccccc4)N3c3ccccc3S2)cc1` (stereo not given), the TGI in the test with A549 NSCLC, in the test with BT-549 breast, in the test on HOP-62 NSCLC, in the test on LOX IMVI melanoma, in the test on MDA-N and in the test on NCI-H226 lung was more than 100 µM in each case. The TGI in the test on SK-MEL-28 melanoma, in the test on SK-MEL-5 melanoma, with SN12C renal, in the test with SR leukemia and with UACC-62 melanoma was more than 100 µM throughout.
